According to patent US20070185167A1, “SODIUM SALTS OF 5-[4-[2-(N-METHYL-N-(2-PYRIDYL)AMINO)ETHOXY]BENZYL]THIAZOLIDINE-2,4-DIONE” (SmithKline Beecham p.l.c., priority 2000, published 2007):

Assays:
[1] = 25° C and 75% relative humidity, approximately constant weight
From the text: For the avoidance of doubt when used herein the terms “non-hygroscopic”, “slightly hygroscopic”, “moderately hygroscopic” and “very hygroscopic” are to have the meanings defined by the above mentioned criteria.

[2] = especially under humid conditions

hygroscopicity classification (% weight gain) [1]: non-hygroscopic (<2%)
solid state stability [2]: good solid state stability
SMILES: CN(CCOc1ccc(CC2SC(=O)NC2=O)cc1)c1ccccn1.[Na] (centres unmarked) [Sodium Salt, 5-[4-[2-(N-Methyl-N-(2-pyridyl)amino)ethoxy]benzyl]thiazolidine-2,4-dione, Sodium Salt]
